Consider 40 molecules from ChEMBL document CHEMBL6096731, “Structure-Guided Optimization and Preclinical Evaluation of 6-O-Benzylguanine-Based Pin1 Inhibitor for Hepatocellular Carcinoma Treatment” (J Med Chem, 2025).

Calls of active or inactive are those of the source. The rule behind the calls is not given here.

The target of data set [1] is Peptidyl-prolyl cis-trans isomerase NIMA-interacting 1 (Homo sapiens, UniProt Q13526). The data set can be described thus: Inhibition of full length pin1 (unknown origin) expressed in Escherichia coli.
Data set [2] is described as follows: Antiproliferative activity against human HCC cells assessed as cell viability incubated for 72 hrs by alamar blue dye based assay. The data set is classed as toxicity. The following applies: for IC50 at 72 h: HCC cells.
Data set [3] relates to SK-HEP1. The data set can be described thus: Antiproliferative activity human SK-HEP1 cells assessed as cell viability measured up to 120 hrs. The data set is classed as functional, cell-based.
Data set [4] relates to SK-HEP1. The data set can be described thus: Antiproliferative activity human SK-HEP1 cells assessed as cell viability measured at 96 hrs. The data set is classed as functional, cell-based.
The subject of data set [5] is SK-HEP1. The data set can be described thus: Antiproliferative activity human SK-HEP1 cells assessed as cell viability measured at 120 hrs. It counts as functional, cell-based.
The test system of data set [6] is SK-HEP1. The data set can be described thus: Inhibition of colony formation human SK-HEP1 cells at 2.5 uM incubated for 5 days by crystal violet staining based analysis. It counts as functional, cell-based. The following applies: time 5.0 day.
Data set [7] has as its system SK-HEP1. The data set can be described thus: Inhibition of cell migration in human SK-HEP1 cells at 5 uM incubated for 24 hrs by crystal violet staining based microscopic analysis. It counts as functional.

Chain of Peptidyl-prolyl cis-trans isomerase NIMA-interacting 1 (Q13526 whole entry): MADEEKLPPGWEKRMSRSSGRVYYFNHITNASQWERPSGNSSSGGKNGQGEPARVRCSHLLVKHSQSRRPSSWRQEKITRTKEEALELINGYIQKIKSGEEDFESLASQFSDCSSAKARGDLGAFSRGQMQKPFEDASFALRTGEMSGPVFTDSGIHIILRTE

In the case of `COc1ccc(COc2nc(N)nc3[nH]cnc23)cc1`, in data set [1], the IC50 amounted to 5.39 µM. Also, in data set [2], the IC50 at 72 h turned out to be 4.2 µM.

Consider `Nc1nc(OCc2cccc(Oc3ccccc3)c2)c2nc[nH]c2n1`, for which the IC50 in data set [1] is more than 50 µM. Also, the IC50 at 72 h in data set [2] came out at 34.3 µM.

With `CC(=O)NCc1ccc(COc2nc(N)nc3[nH]cnc23)cc1`, half-maximal inhibition in data set [1] (IC50) was put at 0.125 µM. The IC50 at 72 h in data set [2] was found to be 5.3 µM.

`CCOC(=O)Cn1cnc2c(OCc3cccc(Cl)c3Cl)nc(N)nc21`: the IC50 in data set [1] was more than 50 µM. Also, in data set [2], the IC50 at 72 h was more than 50 µM.

In data set [1], `Nc1nc(OCc2cccc(F)c2)c2nc[nH]c2n1` had an IC50 of 34.5 µM. Moreover, in data set [2], the IC50 at 72 h came to 3.3 µM.

Regarding `COc1cccc(Oc2nc(N)nc3[nH]cnc23)c1`, half-maximal inhibition in data set [1] (IC50) was put at 28.2 µM. For the same molecule, the IC50 at 72 h in data set [2] is more than 50 µM.

With `Nc1nc(OCc2cc(F)ccc2F)c2nc[nH]c2n1`, the IC50 in data set [1] is 0.36 µM. The IC50 at 72 h in data set [2] is 16.6 µM.

`Nc1nc(OCc2cc(OCc3ccccc3)cc(OCc3ccccc3)c2)c2nc[nH]c2n1`: it took 11.1 µM to reach half-maximal inhibition in data set [1] (IC50). In addition, the IC50 at 72 h in data set [2] was 38.5 µM.

Take `Cc1ccc(COc2nc(N)nc3nc[nH]c23)cc1`: the midpoint of inhibition in data set [1], the IC50, lay at 0.293 µM. Further, the IC50 at 72 h in data set [2] is 6.1 µM.

In turn, `CCOC(=O)CCCn1cnc2c(OCc3cccc(OC)c3)nc(N)nc21` yielded an IC50 in data set [1] of 19.1 µM. In addition, the IC50 at 72 h in data set [2] was more than 50 µM.

In turn, `Nc1nc(OCc2cccc(Cl)c2Cl)c2nc[nH]c2n1` displayed an IC50 in data set [1] of more than 50 µM. For the same molecule, in data set [2], the IC50 at 72 h is 13.3 µM.

Molecule `Cc1ccc(COc2nc(N)nc3[nH]cnc23)cc1C` registered an IC50 in data set [1] of 0.951 µM. For the same molecule, the IC50 at 72 h in data set [2] amounted to 5.3 µM.

On to `COc1cccc(COc2nc(N)nc3c2ncn3Cc2ccccc2)c1`, for which, in data set [1], inhibition was half-maximal at 1.46 µM (IC50). The IC50 at 72 h in data set [2] was more than 50 µM.

As for `Nc1nc(OCc2ccccc2Cl)c2nc[nH]c2n1`, the IC50 in data set [1] came out at 0.148 µM. Further, in data set [2], the IC50 at 72 h was found to be 5.6 µM.

As to `CCOC(=O)Cn1cnc2c(OCc3cccc(Oc4ccccc4)c3)nc(N)nc21`, the IC50 in data set [1] is more than 50 µM. Besides, the IC50 at 72 h in data set [2] is more than 50 µM.

For the molecule `Nc1nc(OCc2cccc(Cl)c2)c2nc[nH]c2n1`, 0.179 µM corresponded to half-maximal inhibition in data set [1] (IC50). Further, in data set [2], the IC50 at 72 h came out at 4 µM.

In turn, `COc1cc(COc2nc(N)nc3[nH]cnc23)cc(OC)c1OC` came in with an IC50 in data set [1] of 7.85 µM. Moreover, the IC50 at 72 h in data set [2] was more than 50 µM.

In data set [1], `COCOc1ccc(COc2nc(N)nc3[nH]cnc23)cc1OC` showed an IC50 of 0.519 µM. The IC50 at 72 h in data set [2] is more than 50 µM.

Take `Cc1cccc(COc2nc(N)nc3nc[nH]c23)c1`: the IC50 in data set [1] turned out to be 0.208 µM. In data set [2], the IC50 at 72 h is 5.5 µM.

`Nc1nc(OCc2cccc(C(F)(F)F)c2)c2nc[nH]c2n1` returned an IC50 in data set [1] of 0.634 µM. The IC50 at 72 h in data set [2] came to 16 µM.

With `Nc1nc(OCc2cccs2)c2nc[nH]c2n1`, the IC50 in data set [1] is 7.15 µM. Also, in data set [2], the half-inhibitory concentration (IC50) at 72 h worked out at 42.2 µM.

In the case of `Nc1nc(OCc2ccc(Br)cc2)c2[nH]cnc2n1`, the IC50 in data set [1] amounted to 0.256 µM. In data set [2], the IC50 at 72 h came out at 4.8 µM.

Regarding `Nc1nc(OCc2cc(F)ccc2Br)c2nc[nH]c2n1`, the IC50 in data set [1] stood at 1.65 µM. The IC50 at 72 h in data set [2] was determined as 22.2 µM.

As for `CSc1ccc(COc2nc(N)nc3[nH]cnc23)cc1`, the IC50 in data set [1] is 0.829 µM. The IC50 at 72 h in data set [2] was 6.9 µM.

Molecule `Nc1nc(SCc2ccccc2)c2[nH]cnc2n1` came in with an IC50 in data set [1] of 2.06 µM. Also, the IC50 at 72 h in data set [2] was determined as 10.4 µM.

As for `CCOC(=O)Cn1cnc2c(OCc3cccc(OC)c3)nc(N)nc21`, half-maximal inhibition in data set [1] (IC50) was put at 21.7 µM. In data set [2], the IC50 at 72 h was more than 50 µM.

Molecule `Nc1nc(OCc2ccc(CNC(=O)C(F)(F)F)cc2)c2nc[nH]c2n1` came in with a 50% inhibitory concentration (IC50) in data set [1] of 0.148 µM. The Activity result in data set [2] (hcc, 72 h) is “Non-toxic”. The outcome in the data set with SK-HEP1 [3], in the data set on SK-HEP1 [4] and in the data set on SK-HEP1 [5] was Active. The inhibition entry in the data set with SK-HEP1 [6] and in the data set on SK-HEP1 [7] was “Active” throughout.

Consider `Nc1nc(OCc2cccc(Br)c2)c2nc[nH]c2n1`, for which, in data set [1], the IC50 came out at 0.64 µM. The IC50 at 72 h in data set [2] worked out at 11.3 µM.

In the case of `COc1cc(COc2nc(N)nc3[nH]cnc23)ccc1OCc1ccccc1`, the IC50 in data set [1] worked out at 11.1 µM. In addition, the 50% inhibitory concentration (IC50) at 72 h in data set [2] was 11.2 µM.

`COCOc1cccc(COc2nc(N)nc3[nH]cnc23)c1`: the IC50 in data set [1] turned out to be 0.508 µM. Moreover, in data set [2], the IC50 at 72 h was found to be 7.6 µM.

In data set [1], `COc1cccc(COc2nc(N)nc3[nH]cnc23)c1` returned an IC50 of 13.5 µM. In addition, the IC50 at 72 h in data set [2] came to 6.6 µM.

As for `Nc1nc(OCc2ccccc2)c2[nH]cnc2n1` [6-O-BENZYLGUANINE], the IC50 in data set [1] came to 0.0914 µM. Also, the IC50 at 72 h in data set [2] stood at 8.5 µM.

For `CCCCOc1nc(N)nc2[nH]cnc12`, in data set [1], the IC50 was determined as 18.3 µM. In addition, the IC50 at 72 h in data set [2] was more than 50 µM.

In data set [1], `Nc1nc(OCc2ccccc2-c2ccccc2)c2nc[nH]c2n1` had an IC50 of 8.03 µM. Further, in data set [2], the IC50 at 72 h turned out to be 28.9 µM.

Regarding `O=C1C=CC(=O)c2c(O)cccc21`, in the data set with SK-HEP1 [6], the inhibition result was “Active”.

For `Nc1nc(OCC2CCCCC2)c2nc[nH]c2n1`, half-maximal inhibition in data set [1] (IC50) was put at 5.69 µM. In addition, in data set [2], the IC50 at 72 h is 29.6 µM.

For `CCOC(=O)Cn1cnc2c(OCc3cccc(F)c3)nc(N)nc21`, in data set [1], the IC50 was 8.03 µM. In addition, the IC50 at 72 h in data set [2] was more than 50 µM.

In data set [1], `Nc1nc(OCc2cccc3ccccc23)c2nc[nH]c2n1` displayed an IC50 of 5.79 µM. In data set [2], the IC50 at 72 h was 33 µM.

In data set [1], `Nc1nc(OCCCc2ccccc2)c2nc[nH]c2n1` had an IC50 of 3.63 µM. Besides, the IC50 at 72 h in data set [2] came to 35.6 µM.

In turn, `COC(=O)Cn1cnc2c(OCc3cccc(Cl)c3Cl)nc(N)nc21` returned a half-inhibitory concentration (IC50) in data set [1] of 0.829 µM. Besides, the IC50 at 72 h in data set [2] is more than 50 µM.
